In the assay the test system is MOLM-13 cells. Kind of assay: Viability assay in MOLM-13 cells (CellTiter-Glo 2.0). It is filed as cell-based, human. Conditions: read-out: MOLM-13 IC50 (cell viability). (In general: Cellular ATP, detected with luciferase, serves as a proxy for viable cell number.)
The mark [1] stands for this setting: MOLM-13 human AML cells, 72 hours, CellTiter-Glo 2.0.

The structures appear in SMILES notation. Where two headings read alike, the source gives them in different places.

Experimental: Effects of test compounds on the proliferation and viability of human AML cells was evaluated using the MOLM-13 cell line (AddexBio Technologies cat. no. C0003003). […] Test compounds or controls (Bortezomib or DMSO) diluted in 2% DMSO/media were added to each well for final concentrations of 0.2% DMSO and 0.1-1 μM Bortezomib. The cells were incubated for 72 hours at 37° C. and 5% CO2. At the end of the 72 hour incubation, plates were removed from the incubator, cooled to room temperature and equal volume of CellTiter-Glo 2.0 (Promega) added to each well. After mixing and incubating the plate at room temperature for 10 minutes the luminescence was read using a plate reader. […] Concentration-response-curves and IC50 values were generated using Collaborative Drug Discovery software.

Usually IC50 stands for the point on the concentration scale where inhibition reaches its midpoint. Regarding `CNc1ccc2ccc(-c3ccc(Cn4ccc5c(-c6ccccc6)cncc5c4=O)cc3)cc2n1` [Compound 94, 2-(4-(2-(methylamino)quinolin-7-yl)benzyl)-5-phenyl-2,7-naphthyridin-1(2H)-one], under setting [1], the IC50 was 1 to 10 µM.

Turning to `O=c1c2cncc(-c3ccccc3)c2ccn1Cc1cn2cc(CNc3cc(NCCCCl)ccn3)ccc2n1` [Compound 96, 2-((6-(((4-((3-chloropropyl)amino)pyridin-2-yl)amino)methyl)imidazo [1,2-a]pyridin-2-yl)methyl)-5-phenyl-2,7-naphthyridin-1(2H)-one], the IC50 under setting [1] fell in the range of 1 to 10 µM.

For `COCCNc1ccnc(NCc2ccc3nc(Cn4ccc5c(-c6ccccc6)cncc5c4=O)cn3c2)c1` [Compound 99, 2-((6-(((4-((2-methoxyethyl)amino)pyridin-2-yl)amino)methyl)imidazo[1,2-a]pyridin-2-yl)methyl)-5-phenyl-2,7-naphthyridin-1(2H)-one], the IC50 (Homo sapiens, MOLM-13, 72 h) is > 10 µM.

For the molecule `O=c1c2cncc(-c3ccccc3)c2ccn1Cc1cn2cc(CNc3ccccn3)ccc2n1` [Compound 100, 5-phenyl-2-((6-((pyridin-2-ylamino)methyl)imidazo[1,2-a]pyridin-2-yl)methyl)-2,7-naphthyridin-1(2H)-one], the IC50 under setting [1] was 1 to 10 µM. Take `COc1ccnc(NCc2ccc3nc(Cn4ccc5c(-c6ccccc6)cncc5c4=O)cn3c2)c1` [Compound 101, 2-((6-(((4-methoxypyndin-2-yl)amino)methyl)imidazo[1,2-a]pyridin-2-yl)methyl)-5-phenyl-2,7-naphthyridin-1(2H)-one]: the IC50 under setting [1] fell in the range of 1 to 10 µM. Still for that read-out and setting: to `O=c1c2cncc(-c3ccccc3)c2ccn1Cc1cn2cc(CNc3cc(N4CCOCC4)ccn3)ccc2n1` [Compound 102, 2-{[6-({[4-(morpholin-4-yl)pyridin-2-yl]amino}methyl)imidazo[1,2-a]pyridin-2-yl]methyl}-5-phenyl-1,2-dihydro-2,7-naphthyridin-1-one] belongs 1 to 10 µM. Turning to `O=c1c2cncc(-c3ccccc3)c2ccn1Cc1cn2cc(-c3cc(N4CCC4)ccn3)ccc2n1` [Compound 105, 2-((6-(4-(azetidin-1-yl)pyridin-2-yl)imidazo[1,2-a]pyridin-2-yl)methyl)-5-phenyl-2,7-naphthyridin-1(2H)-one], for the setting “Homo sapiens, MOLM-13, 72 h”, the half-inhibitory concentration (IC50) fell in the range of 1 to 10 µM.

For the molecule `O=c1c2cncc(N3CC4(CCC4)C3)c2ccn1Cc1cn2cc(CNCC3CC(F)C3)ccc2n1` (stereo not shown) [Compound 110, 2-((6-((((3-fluorocyclobutyl)methyl)amino)methyl)imidazo [1,2-a]pyridin-2-yl)methyl)-5-(2-azaspiro[3.3]heptan-2-yl)-2,7-naphthyridin-1(2H)-one], under setting [1], the IC50 fell in the range of 1 to 10 µM. On the same count and under the same terms, to `CC1(C)CCN(Cc2ccc3nc(Cn4ccc5c(N6CC7(C6)CC(F)(F)C7)cncc5c4=O)cn3c2)CC1` [Compound 111, 5-{6,6-difluoro-2-azaspiro[3.3]heptan-2-yl}-2-({6-[(4,4-dimethylpiperidin-1-yl)methyl]imidazo[1,2-a]pyridin-2-yl}methyl)-1,2-dihydro-2,7-naphthyridin-1-one] belongs > 10 µM; to `CC1(C)CCN(Cc2ccc3nc(Cn4ccc5c(N6CCC(F)(F)CC6)cncc5c4=O)cn3c2)CC1` [Compound 112, 5-(4,4-difluoropiperidin-1-yl)-2-({6-[(4,4-dimethylpiperidin-1-yl)methyl]imidazo[1,2-a]pyridin-2-yl}methyl)-1,2-dihydro-2,7-naphthyridin-1-one], 1 to 10 µM. The same measure, in the same setting: with `CC1(C)CCN(Cc2ccc3nc(Cn4ccc5c(N6CCOCC6)cncc5c4=O)cn3c2)CC1` [Compound 113, 2-({6-[(4,4-dimethylpiperidin-1-yl)methyl]imidazo[1,2-a]pyridin-2-yl}methyl)-5-(morpholin-4-yl)-1,2-dihydro-2,7-naphthyridin-1-one] the figure was 1 to 10 µM; with `CC1(C)CCN(Cc2ccc3nc(Cn4ccc5c(N6CC7(CCOCC7)C6)cncc5c4=O)cn3c2)CC1` [Compound 114, 2-({6-[(4,4-dimethylpiperidin-1-yl)methyl]imidazo[1,2-a]pyridin-2-yl}methyl)-5-{7-oxa-2-azaspiro[3.5]nonan-2-yl}-1,2-dihydro-2,7-naphthyridin-1-one], 1 to 10 µM; with `CC1(C)CCN(Cc2ccc3nc(Cn4ccc5c(N6CC7COCC7C6)cncc5c4=O)cn3c2)CC1` (stereo not shown) [Compound 117, 2-({6-[(4,4-dimethylpiperidin-1-yl)methyl]imidazo[1,2-a]pyridin-2-yl}methyl)-5-{hexahydro-1H-furo[3,4-c]pyrrol-5-yl}-1,2-dihydro-2,7-naphthyridin-1-one], > 10 µM. Consider `CC1(C)CCN(Cc2ccc3nc(Cn4ccc5c(N6CC(N7CCOCC7)C6)cncc5c4=O)cn3c2)CC1` [Compound 118, 2-({6-[(4,4-dimethylpiperidin-1-yl)methyl]imidazo[1,2-a]pyridin-2-yl}methyl)-5-[3-(morpholin-4-yl)azetidin-1-yl]-1,2-dihydro-2,7-naphthyridin-1-one], for which the IC50 under setting [1] was in the range of 1 to 10 µM. Still for that read-out and setting: with `CC1(C)CCN(Cc2ccc3nc(Cn4ccc5c(N6CC7(CCNCC7)C6)cncc5c4=O)cn3c2)CC1` [Compound 119, 5-{2,7-diazaspiro[3.5]nonan-2-yl}-2-({6-[(4,4-dimethylpiperidin-1-yl)methyl]imidazo[1,2-a]pyridin-2-yl}methyl)-1,2-dihydro-2,7-naphthyridin-1-one] the figure was 1 to 10 µM; with `CC1(C)CCN(Cc2ccc3nc(Cn4ccc5c(-c6ccc(S(N)(=O)=O)cc6)cncc5c4=O)cn3c2)CC1` [Compound 123, 4-[7-({6-[(4,4-dimethylpiperidin-1-yl)methyl]imidazo[1,2-a]pyridin-2-yl}methyl)-8-oxo-7,8-dihydro-2,7-naphthyridin-4-yl]benzene-1-sulfonamide], > 10 µM. Turning to `CC1(C)CCN(Cc2ccc3nc(Cn4ccc5c(C#Cc6ccncc6)cncc5c4=O)cn3c2)CC1` [Compound 124, 2-((6-((4,4-dimethylpiperidin-1-yl)methyl)imidazo[1,2-a]pyridin-2-yl)methyl)-5-(pyridin-4-ylethynyl)-2,7-naphthyridin-1(2H)-one], the 50% inhibitory concentration (IC50) under setting [1] was > 10 µM. Take `CN(C)CC1CN(c2cncc3c(=O)n(Cc4cn5cc(CN6CCC(C)(C)CC6)ccc5n4)ccc23)C1` [Compound 125, 5-{3-[(dimethylamino)methyl]azetidin-1-yl}-2-({6-[(4,4-dimethylpiperidin-1-yl)methyl]imidazo[1,2-a]pyridin-2-yl}methyl)-1,2-dihydro-2,7-naphthyridin-1-one]: the IC50 under setting [1] was > 10 µM. Same read-out and setting: with `CN1CCN(C2CN(c3cncc4c(=O)n(Cc5cn6cc(CN7CCC(C)(C)CC7)ccc6n5)ccc34)C2)CC1` [Compound 126, 2-({6-[(4,4-dimethylpiperidin-1-yl)methyl]imidazo[1,2-a]pyridin-2-yl}methyl)-5-[3-(4-methylpiperazin-1-yl)azetidin-1-yl]-1,2-dihydro-2,7-naphthyridin-1-one] the figure was > 10 µM; with `O=c1c2cncc(N3CC4(CCOCC4)C3)c2ccn1Cc1cn2cc(CN3CCC4(CC3)CC4)ccc2n1` [Compound 127, 2-{[6-({6-azaspiro[2.5]octan-6-yl}methyl)imidazo[1,2-a]pyridin-2-yl]methyl}-5-{7-oxa-2-azaspiro[3.5]nonan-2-yl}-1,2-dihydro-2,7-naphthyridin-1-one], 1 to 10 µM. On to `O=c1c2cncc(N3CC4(CCOCC4)C3)c2ccn1Cc1cn2cc(CN3CC4(CCC4)C3)ccc2n1` [Compound 128, 2-{[6-({2-azaspiro[3.3]heptan-2-yl}methyl)imidazo[1,2-a]pyridin-2-yl]methyl}-5-{7-oxa-2-azaspiro[3.5]nonan-2-yl}-1,2-dihydro-2,7-naphthyridin-1-one], for which, under setting [1], the IC50 was 1 to 10 µM.

For the molecule `O=c1c2cncc(N3CC4(CCOCC4)C3)c2ccn1Cc1cn2cc(CN3CCC4(CCC4)CC3)ccc2n1` [Compound 129, 2-((6-((7-azaspiro[3.5]nonan-7-yl)methyl)imidazo[1,2-a]pyridin-2-yl)methyl)-5-(7-oxa-2-azaspiro[3.5]nonan-2-yl)-2,7-naphthyridin-1(2H)-one], the half-inhibitory concentration (IC50) under setting [1] was in the range of 1 to 10 µM. For `O=c1c2cncc(N3CC4(CCOCC4)C3)c2ccn1Cc1cn2cc(CN3CCC4(CCOC4)C3)ccc2n1` (stereo not shown) [Compound 130, 5-{7-oxa-2-azaspiro[3.5]nonan-2-yl}-2-{[6-({2-oxa-7-azaspiro[4.4]nonan-7-yl}methyl)imidazo[1,2-a]pyridin-2-yl]methyl}-1,2-dihydro-2,7-naphthyridin-1-one], the IC50 under setting [1] was 1 to 10 µM. Still for that read-out and setting: to `O=c1c2cncc(N3CC4(CCOCC4)C3)c2ccn1Cc1cn2cc(CN3CCC(C(F)(F)F)CC3)ccc2n1` [Compound 132, 5-{7-oxa-2-azaspiro[3.5]nonan-2-yl}-2-[(6-{[4-(trifluoromethyl)piperidin-1-yl]methyl}imidazo[1,2-a]pyridin-2-yl)methyl]-1,2-dihydro-2,7-naphthyridin-1-one] belongs 1 to 10 µM; to `CC1(C#N)CCN(Cc2ccc3nc(Cn4ccc5c(N6CC7(CCOCC7)C6)cncc5c4=O)cn3c2)CC1` [Compound 134, 4-methyl-1-({2-[(5-{7-oxa-2-azaspiro[3.5]nonan-2-yl}-1-oxo-1,2-dihydro-2,7-naphthyridin-2-yl)methyl]imidazo[1,2-a]pyridin-6-yl}methyl)piperidine-4-carbonitrile], > 10 µM; to `O=c1c2cncc(N3CC4(CCOCC4)C3)c2ccn1Cc1cn2cc(CN3CC4(C3)CC(F)(F)C4)ccc2n1` [Compound 135, 2-{[6-({6,6-difluoro-2-azaspiro[3.3]heptan-2-yl}methyl)imidazo[1,2-a]pyridin-2-yl]methyl}-5-{7-oxa-2-azaspiro[3.5]nonan-2-yl}-1,2-dihydro-2,7-naphthyridin-1-one], 1 to 10 µM. Still for that read-out and setting: to `O=c1c2cncc(N3CC4(CCOCC4)C3)c2ccn1Cc1cn2cc(CN3CC4(CC(F)C4)C3)ccc2n1` [Compound 136, 2-{[6-({6-fluoro-2-azaspiro[3.3]heptan-2-yl}methyl)imidazo[1,2-a]pyridin-2-yl]methyl}-5-{7-oxa-2-azaspiro[3.5]nonan-2-yl}-1,2-dihydro-2,7-naphthyridin-1-one] belongs 1 to 10 µM; to `O=c1c2cncc(N3CC4(CCOCC4)C3)c2ccn1Cc1cn2cc(CN3CCC4(CCCC4)C3)ccc2n1` [Compound 137], 1 to 10 µM.

The record behind these values is patent publication US20250059207A1, “6,6-FUSED HETEROCYCLIC COMPOUNDS AS METTL3 INHIBITORS” (858 Therapeutics, Inc., priority 2021, published 2025).
